These compounds were tested against T1, human glucocorticoid receptor (GR) complex (Homo sapiens, UniProt P04150) (assay: Glucocorticoid Receptor Competitive Binding Assay (fluorescence polarization)). Settings: competition with TAMRA-labeled dexamethasone; potent activity.
T1 construct: made in house; host or cells: insect expression system (baculovirus lysate)
T1 sequence (P04150 1-777): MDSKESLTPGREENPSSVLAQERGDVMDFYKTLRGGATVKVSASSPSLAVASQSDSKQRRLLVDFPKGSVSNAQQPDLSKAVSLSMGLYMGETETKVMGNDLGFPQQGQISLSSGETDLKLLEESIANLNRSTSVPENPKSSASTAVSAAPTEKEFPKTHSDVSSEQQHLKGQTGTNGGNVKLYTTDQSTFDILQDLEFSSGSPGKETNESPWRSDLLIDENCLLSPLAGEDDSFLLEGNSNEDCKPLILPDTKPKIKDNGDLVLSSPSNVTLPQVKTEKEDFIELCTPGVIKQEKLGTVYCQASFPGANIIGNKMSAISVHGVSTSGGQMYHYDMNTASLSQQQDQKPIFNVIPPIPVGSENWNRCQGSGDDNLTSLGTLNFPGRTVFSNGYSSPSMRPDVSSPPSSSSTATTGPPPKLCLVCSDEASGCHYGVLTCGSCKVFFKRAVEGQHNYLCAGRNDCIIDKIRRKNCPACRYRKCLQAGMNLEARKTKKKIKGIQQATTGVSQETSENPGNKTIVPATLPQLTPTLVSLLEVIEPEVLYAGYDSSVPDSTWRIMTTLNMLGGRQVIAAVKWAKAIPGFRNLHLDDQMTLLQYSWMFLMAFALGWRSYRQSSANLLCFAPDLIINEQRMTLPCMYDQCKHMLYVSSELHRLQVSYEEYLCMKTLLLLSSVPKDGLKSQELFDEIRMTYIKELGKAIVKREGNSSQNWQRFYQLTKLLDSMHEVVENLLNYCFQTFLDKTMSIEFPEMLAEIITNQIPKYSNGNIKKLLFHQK
Description: Compounds of the invention were evaluated for binding to the steroid receptor by a fluorescence polarization competitive binding assay. Detailed descriptions for preparation of recombinant glucocorticoid receptor (GR) complex used in the assay is described in U.S. Patent Application Publication No. US 2003/0017503, filed May 20, 2002, and incorporated herein by reference in its entirety. Preparation of the tetramethylrhodamine (TAMRA)-labeled dexamethasone probe was accomplished using a standard literature procedure (M. Pons et al., J. Steroid Biochem., 1985, 22, pp. 267-273).
This assay uses fluorescence polarization (FP) to quantitate the ability of test compounds to compete with tetramethylrhodamine (TAMRA)-labeled dexamethasone for binding to a human glucocorticoid receptor (GR) complex prepared from an insect expression system. The assay buffer was: 10 mM TES, 50 mM KCl, 20 mM Na2MoO4.2H2O, 1.5 mM EDTA, 0.04% w/v CHAPS, 10% v/v glycerol, 1 mM dithiothreitol, pH 7.4. Test compounds were dissolved to 1 mM in neat DMSO and then further diluted to 10× assay concentration in assay buffer supplemented with 10% v/v DMSO. Test compounds were serially diluted at 10× assay concentrations in 10% DMSO-containing buffer in 96-well polypropylene plates. Binding reaction mixtures were prepared in 96-well black Dynex microtiter plates by sequential addition of the following assay components to each well: 15 μL of 10× test compound solution, 85 μL of GR-containing baculovirus lysate diluted 1:170 in assay buffer, and 50 μL of 15 nM TAMRA-labeled dexamethasone. Positive controls were reaction mixtures containing no test compound; negative controls (blanks) were reaction mixtures containing 0.7 μM to 2 μM dexamethasone. The binding reactions were incubated for 1 hour at room temperature and then read for fluorescence polarization in the LJL Analyst set to 550 nm excitation and 580 nm emission, with the Rhodamine 561 dichroic mirror installed. IC50 values were determined by iterative non-linear curve fitting of the FP signal data to a 4-parameter logistic equation.

| IC50 [nM] | Compound |
| --- | --- |
| ≤ 100 | CC[C@@H](Cn1ccc2cc(C(=O)OC)ccc21)NS(=O)(=O)c1c(C)cc(C)cc1C [1-[(S)-2-(2,4,6-Trimethylbenzenesulfonylamino)butyl]-1H-indole-5-carboxylic acid methyl ester] |
| ≤ 100 | CC[C@@H](Cn1cc(C(N)=O)c2cc(F)ccc21)NS(=O)(=O)c1c(Cl)cc(Br)cc1Cl [1-[(S)-2-(4-Bromo-2,6-dichlorobenzenesulfonylamino)butyl]-5-fluoro-1H-indole-3-carboxylic acid amide] |
| ≤ 100 | CCC(Cn1cc(C)c2ccccc21)NS(=O)(=O)c1c(Cl)cc(Cl)cc1Cl (stereo not shown) [2,4,6-Trichloro-N-[1-(3-methylindol-1-ylmethyl)propyl]benzenesulfonamide] |
| ≤ 100 | Cc1ccc2c(c1)CCCN2CC(NS(=O)(=O)c1c(Cl)cc(Cl)cc1Cl)C(C)C (stereo not shown) [2,4,6-Trichloro-N-[2-methyl-1-(6-methyl-3,4-dihydro-2H-quinolin-1-ylmethyl)propyl]benzenesulfonamide] |
| ≤ 100 | CCC(Cn1cc(C)c2ccccc21)NS(=O)(=O)c1c(C)cc(C)cc1C (stereo not shown) [2,4,6-Trimethyl-N-[1-(3-methylindol-1-ylmethyl)propyl]benzenesulfonamide] |
| ≤ 100 | CC[C@@H](Cc1cccc2c1ccn2C)NS(=O)(=O)c1c(C)cc(C)cc1C [2,4,6-Trimethyl-N—[(S)-1-(1-methyl-1H-indol-4-ylmethyl)propyl]benzenesulfonamide] |
| ≤ 100 | CC[C@@H](Cc1ccc2ccn(C)c2c1)NS(=O)(=O)c1c(C)cc(C)cc1C [2,4,6-Trimethyl-N—[(S)-1-(1-methyl-1H-indol-6-ylmethyl)propyl]benzenesulfonamide] |
| ≤ 100 | CC[C@@H](Cc1cccc2ccn(C)c12)NS(=O)(=O)c1c(C)cc(C)cc1C [2,4,6-Trimethyl-N—[(S)-1-(1-methyl-1H-indol-7-ylmethyl)propyl]benzenesulfonamide] |
| ≤ 100 | CC[C@@H](Cn1cc(C)c2ccccc21)NS(=O)(=O)c1c(C)cc(C)cc1C [2,4,6-Trimethyl-N—[(S)-1-(3-methylindol-1-ylmethyl)propyl]benzenesulfonamide] |
| ≤ 100 | CC[C@@H](Cn1cc(-c2ccc(C)cc2)c2ccccc21)NS(=O)(=O)c1c(C)cc(C)cc1C [2,4,6-Trimethyl-N—[(S)-1-(3-p-tolylindol-1-ylmethyl)propyl]benzenesulfonamide] |
| ≤ 100 | CC[C@@H](Cn1cc(-c2cccnc2)c2ccccc21)NS(=O)(=O)c1c(C)cc(C)cc1C [2,4,6-Trimethyl-N—[(S)-1-(3-pyridin-3-ylindol-1-ylmethyl)propyl]benzenesulfonamide] |
| ≤ 100 | Cc1cc(C)c(S(=O)(=O)NC(Cn2cc(C)c3ccccc32)C(C)C)c([N+](=O)[O-])c1 (stereo not shown) [2,4-Dimethyl-N-[2-methyl-1-(3-methylindol-1-ylmethyl)propyl]-6-nitrobenzenesulfonamide] |
| ≤ 100 | CC[C@@H](Cn1cc(C)c2ccccc21)NS(=O)(=O)c1c(C)cc(C)cc1[N+](=O)[O-] [2,4-Dimethyl-N—[(S)-1-(3-methylindol-1-ylmethyl)propyl]-6-nitrobenzenesulfonamide] |
| ≤ 100 | Cc1cc(C)c(S(=O)(=O)N[C@@H](C)Cn2cc(C)c3ccccc32)c([N+](=O)[O-])c1 [2,4-Dimethyl-N—[(S)-1-methyl-2-(3-methylindol-1-yl)-ethyl]-6-nitrobenzenesulfonamide] |
| ≤ 100 | CC(C)C(Cn1ccc2ccccc21)NS(=O)(=O)c1c(N)cc(Cl)cc1Cl (stereo not shown) [2-Amino-4,6-dichloro-N-(1-indol-1-ylmethyl-2-methylpropyl)benzenesulfonamide] |
| ≤ 100 | CCC(Cn1cc(C)c2ccccc21)NS(=O)(=O)c1c(N)cc(Cl)cc1Cl (stereo not shown) [2-Amino-4,6-dichloro-N-[1-(3-methylindol-1-ylmethyl)propyl]benzenesulfonamide] |

| IC50 [nM] | Compound |
| --- | --- |
| ≤ 100 | Cc1cn(CC(NS(=O)(=O)c2c(N)cc(Cl)cc2Cl)C(C)C)c2ccccc12 (stereo not shown) [2-Amino-4,6-dichloro-N-[2-methyl-1-(3-methylindol-1-ylmethyl)propyl]benzenesulfonamide] |
| ≤ 100 | CC[C@@H](Cn1ccc2ccccc21)NS(=O)(=O)c1c(N)cc(Cl)cc1Cl [2-Amino-4,6-dichloro-N—((S)-1-indol-1-ylmethylpropyl)benzenesulfonamide] |
| ≤ 100 | CC(C)[C@@H](Cn1cc(C#N)c2ccccc21)NS(=O)(=O)c1c(N)cc(Cl)cc1Cl [2-Amino-4,6-dichloro-N—[(S)-1-(3-cyanoindol-1-ylmethyl)-2-methylpropyl]benzenesulfonamide] |
| ≤ 100 | CC[C@@H](Cn1cc(C#N)c2ccccc21)NS(=O)(=O)c1c(N)cc(Cl)cc1Cl [2-Amino-4,6-dichloro-N—[(S)-1-(3-cyanoindol-1-ylmethyl)propyl]benzenesulfonamide] |
| ≤ 100 | CC[C@@H](Cn1cc(C)c2ccccc21)NS(=O)(=O)c1c(N)cc(Cl)cc1Cl [2-Amino-4,6-dichloro-N—[(S)-1-(3-methylindol-1-ylmethyl)propyl]benzenesulfonamide] |
| ≤ 100 | CC[C@@H](Cn1cc(-c2ccccc2)c2ccccc21)NS(=O)(=O)c1c(N)cc(Cl)cc1Cl [2-Amino-4,6-dichloro-N—[(S)-1-(3-phenylindol-1-ylmethyl)propyl]benzenesulfonamide] |
| ≤ 100 | Cc1cn(C[C@@H](NS(=O)(=O)c2c(N)cc(Cl)cc2Cl)C(C)C)c2ccccc12 [2-Amino-4,6-dichloro-N—[(S)-2-methyl-1-(3-methylindol-1-ylmethyl)propyl]benzenesulfonamide] |
| ≤ 100 | CC[C@@H](Cn1cc(C)c2ccccc21)NS(=O)(=O)c1c(C)cc(C)cc1N [2-Amino-4,6-dimethyl-N—[(S)-1-(3-methylindol-1-ylmethyl)propyl]benzenesulfonamide] |
| ≤ 100 | Cc1cc(C)c(S(=O)(=O)N[C@H](Cn2cc(C)c3ccccc32)C(C)C)c(N)c1 [2-Amino-4,6-dimethyl-N—[(S)-2-methyl-1-(3-methylindol-1-ylmethyl)propyl]benzenesulfonamide] |
| ≤ 100 | CC[C@@H](Cn1cc(C#N)c2cc(F)ccc21)NS(=O)(=O)c1c(C)cc(C)cc1N [2-Amino-N—[(S)-1-(3-cyano-5-fluoroindol-1-ylmethyl)propyl]-4,6-dimethylbenzenesulfonamide] |
| ≤ 100 | CC[C@@H](Cn1cc(C#N)c2cccc(F)c21)N(C)S(=O)(=O)c1c(C)cc(C)cc1N [2-Amino-N—[(S)-1-(3-cyano-7-fluoroindol-1-ylmethyl)propyl]-4,6,N-trimethylbenzenesulfonamide] |
| ≤ 100 | Cc1cc(C)c(S(=O)(=O)N[C@H](Cn2cc(C#N)c3ccccc32)C(C)C)c(N)c1 [2-Amino-N—[(S)-1-(3-cyanoindol-1-ylmethyl)-2-methylpropyl]-4,6-dimethylbenzenesulfonamide] |
| ≤ 100 | CC[C@@H](Cn1cc(CC#N)c2ccccc21)NS(=O)(=O)c1c(C)cc(C)cc1N [2-Amino-N—[(S)-1-(3-cyanomethylindol-1-ylmethyl)propyl]-4,6-dimethylbenzenesulfonamide] |
| ≤ 100 | CC[C@@H](Cn1cc(C)c2cccc(F)c21)NS(=O)(=O)c1c(C)cc(C)cc1N [2-Amino-N—[(S)-1-(7-fluoro-3-methylindol-1-ylmethyl)propyl]-4,6-dimethylbenzenesulfonamide] |
| ≤ 100 | Cc1cc(C)c(S(=O)(=O)N[C@@H](C)Cn2cc(C#N)c3cc(F)ccc32)c(N)c1 [2-Amino-N—[(S)-2-(3-cyano-5-fluoroindol-1-yl)-1-methylethyl]-4,6-dimethylbenzenesulfonamide] |

From US20100317863A1, “Glucocorticoid Mimetics, Methods of Making Them, Pharmaceutical Compositions and Uses Thereof” (BOEHRINGER INGELHEIM INTERNATIONAL GMBH, priority 2007, published 2010)
